From patent publication US20250339569A1, “CARBONIC ANHYDRASE IX LIGANDS” (priority 2021, published 2025)
Starred links: 1 amine or outer side, 2 acyl side, 3 side chain; linkers in the order of their positions; H or OH if unused. Positions of bridges follow the written chain, without caps; N, C: chain ends. Non-standard residues stand in square brackets, D forms with d. Residues, ends and D or L forms follow the SMILES beside them. *: point of attachment. DOTA = O=C(O)CN1CCN(CC(=O)O)CCN(CC(=O)*)CCN(CC(=O)O)CC1; Phe(4-NH2) = Nc1ccc(C[C@H](N)C(=O)O)cc1; mXylylene = c1cc(C[*:1])cc(C[*:2])c1; X1 = O=C(CN1CCN([*:1])CC1)[*:2]; X31 = NS(=O)(=O)c1coc(C(=O)*)c1

Assays:
[1] = molecular target: T1, CAIX-expressing human HT-29 colorectal cancer cells (Homo sapiens, UniProt Q16790); test: FACS binding assay (IC50 determination, competition with tracer 3BP-2776 or 3BP-4149); settings: FACS binding assay, HT-29 cells, competition with tracer 3BP-2776 (10 nM, biotin-labeled), 4° C., 1 hour; read-out: pIC50 category (activity) (converted)
T1 construct: CAIX-expressing human HT-29 colorectal cancer cells; host or cells: HT-29 human colorectal cancer cells
Outline: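 HT-29 cells in FACS buffer (PBS, 1% FCS) at 500.000 cells/ml were exposed to compounds competing with a labelled tracer, with biotinylated compounds detected by 1 μg/mL APC-streptavidin for 30 min on ice. APC/Cy5 median fluorescence was read by flow cytometry and IC50 derived by 4PL fit.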

[2] = molecular target: T2, human carbonic anhydrase IX (hCAIX-Fc) (Homo sapiens, UniProt Q16790); test: Surface plasmon resonance assay with hCAIX-Fc; assay type: binding; settings: 25° C.; for t1/2 category (activity): SPR dissociation half-life, hCAIX-Fc; for Kd: SPR, hCAIX-Fc captured, read-out: pKD category (activity) (converted)
T2 construct: purchased SinoBliological (Sino Biological) 10107-H02H

Structure (SMILES)	IC50 [1]	t1/2 category (activity) [2]	Kd [2]
CC(C)C[C@@H]1NC(=O)[C@H](Cc2cccc(NC(=O)c3cccc(NS(N)(=O)=O)n3)c2)NC(=O)[C@H](CC(=O)O)NC(=O)[C@H]2CCCN2C(=O)[C@H](CCC(=O)O)NC(=O)[C@@H](NC(=O)[C@H](CCC(N)=O)NC(=O)CN2CCN(C(=O)CN3CCN(CC(=O)O)CCN(CC(=O)O)CCN(CC(=O)O)CC3)CC2)CSCc2cccc(c2)CSC[C@@H](C(N)=O)NC(=O)[C@H](CO)NC(=O)[C@H](Cc2c[nH]c3ccccc23)NC(=O)[C@H]([C@@H](C)O)NC1=O [3BP-4514]	< 10 nM	B (t1/2 between 5.1 and 15.0 minutes)	< 10 nM
CC(C)C[C@@H]1NC(=O)[C@H](Cc2cccc(NC(=O)CCCC(=O)NO)c2)NC(=O)[C@H](CC(=O)O)NC(=O)[C@H]2CCCN2C(=O)[C@H](CCC(=O)O)NC(=O)[C@@H](NC(=O)[C@H](CCC(N)=O)NC(=O)CN2CCN(C(=O)CN3CCN(CC(=O)O)CCN(CC(=O)O)CCN(CC(=O)O)CC3)CC2)CSCc2cccc(c2)CSC[C@@H](C(N)=O)NC(=O)[C@H](CO)NC(=O)[C@H](Cc2c[nH]c3ccccc23)NC(=O)[C@H]([C@@H](C)O)NC1=O [3BP-4515]	10 to 79.4 nM	C (t1/2 between 2.1 and 5.0 minutes)	< 10 nM
CC(C)C[C@@H]1NC(=O)[C@H](Cc2cccc(NC(=O)c3cc(S(N)(=O)=O)co3)c2)NC(=O)[C@H](CC(=O)O)NC(=O)[C@H]2CCCN2C(=O)[C@H](CCC(=O)O)NC(=O)[C@@H](NC(=O)[C@H](CCC(N)=O)NC(=O)CN2CCN(C(=O)CN3CCN(CC(=O)O)CCN(CC(=O)O)CCN(CC(=O)O)CC3)CC2)CSCc2cccc(c2)CSC[C@@H](C(N)=O)NC(=O)[C@H](CO)NC(=O)[C@H](Cc2c[nH]c3ccccc23)NC(=O)[C@H]([C@@H](C)O)NC1=O [3BP-4788]	< 10 nM	A (t1/2>15.0 minutes)	< 10 nM
CC(C)C[C@@H]1NC(=O)[C@H](Cc2cccc(NC(=O)c3cc(S(N)(=O)=O)c[nH]3)c2)NC(=O)[C@H](CC(=O)O)NC(=O)[C@H]2CCCN2C(=O)[C@H](CCC(=O)O)NC(=O)[C@@H](NC(=O)[C@H](CCC(N)=O)NC(=O)CN2CCN(C(=O)CN3CCN(CC(=O)O)CCN(CC(=O)O)CCN(CC(=O)O)CC3)CC2)CSCc2cccc(c2)CSC[C@@H](C(N)=O)NC(=O)[C@H](CO)NC(=O)[C@H](Cc2c[nH]c3ccccc23)NC(=O)[C@H]([C@@H](C)O)NC1=O [3BP-4789]	10 to 79.4 nM	C (t1/2 between 2.1 and 5.0 minutes)	10 to 79.4 nM
CC(C)C[C@@H]1NC(=O)[C@H](Cc2cccc(NC(=O)Cn3cc(S(N)(=O)=O)cn3)c2)NC(=O)[C@H](CC(=O)O)NC(=O)[C@H]2CCCN2C(=O)[C@H](CCC(=O)O)NC(=O)[C@@H](NC(=O)[C@H](CCC(N)=O)NC(=O)CN2CCN(C(=O)CN3CCN(CC(=O)O)CCN(CC(=O)O)CCN(CC(=O)O)CC3)CC2)CSCc2cccc(c2)CSC[C@@H](C(N)=O)NC(=O)[C@H](CO)NC(=O)[C@H](Cc2c[nH]c3ccccc23)NC(=O)[C@H]([C@@H](C)O)NC1=O [3BP-4790]	< 10 nM	A (t1/2>15.0 minutes)	< 10 nM
CC(C)C[C@@H]1NC(=O)[C@H](Cc2ccc(NC(=O)c3cc(S(N)(=O)=O)co3)cc2)NC(=O)[C@H](CC(=O)O)NC(=O)[C@H]2CCCN2C(=O)[C@H](CCC(=O)O)NC(=O)[C@@H](NC(=O)[C@H](CCC(N)=O)NC(=O)CN2CCN(C(=O)CN3CCN(CC(=O)O)CCN(CC(=O)O)CCN(CC(=O)O)CC3)CC2)CSCc2cccc(c2)CSC[C@@H](C(N)=O)NC(=O)[C@H](CO)NC(=O)[C@H](Cc2c[nH]c3ccccc23)NC(=O)[C@H]([C@@H](C)O)NC1=O [3BP-4813] ({DOTA}-[X1]QCE[dP]D[Phe(4-NH2)](X31)LTWSC-NH2; linker 3-12 via mXylylene)	10 to 79.4 nM	C (t1/2 between 2.1 and 5.0 minutes)	10 to 79.4 nM
